Experimental data: article PMC2064136 (The Journal of Cell Biology, 2007)

Columns and labels:
[1] = system: mouse liver mitochondria (MLM); type: biochemical
[2] = system: Xenopus egg mitochondria (XEM); type: biochemical, Xenopus laevis; conditions: for concentration that protected XEM against at least 20 nM tBid: titrations in XEM supplemented with tBid (Fig. 5 A)
Bak = conditions: ref Willis et al., 2005; cited from earlier work
[3] = full-length Bcl-xL, tBid 2 h (Fig. 3)

Row | Substance | concentration protecting MLM from tBid [1, 3] [nM] | concentration protecting XEM from tBid [2, 3] [nM] | concentration that protected XEM against at least 20 nM tBid [2] [nM] | binding to Bak (Bak) | loss of activity relative to full-length Bcl-xL in protecting MLM from tBid ([1]; MLM, tBid (Fig. 3 B)) | block of the permeabilizing effect of Bad, Bmf and Hrk BH3 peptides on MLM ([1]; MLM incubated as for XEM with mBad, Bmf, Hrk BH3 peptides (Fig. 4 B)) | relative protection of XEM from different BH3 peptides ([2]; Fig. S4)
1 | Bcl-xL: recombinant full-length human Bcl-xL | ~20 | ~20 | 30 | bind Bak | – | – | –
2 | Bcl-xLΔC24: C-terminally truncated form of human Bcl-xL | – | – | – | – | 10–30 times | – | –
3 | Mcl-1: recombinant mouse Mcl-1ΔN151ΔC11 with five additional N-terminal residues (GPLGS) | – | – | 300 | bind Bak | – | also blocked | protected XEM better from the Bad than from the Bim or Puma peptides
